Test results from patent publication EP0234113A1, “2,3-Dihydro-1H-phenalene-2-amino compounds as anti-psychotic drugs” (THE UPJOHN COMPANY, priority 1985, dated 1987).
Counter-ions that a name gives are not always drawn.

System: body temperature
Experiment: Hypothermia Test (effect on body temperature)
Assay type: in vivo, CF-1 male mice
Details: for active in either the hypothermic or the apomorphine antogonism test: either test: hypothermic or apomorphine antagonism
Description: The Effect on Body Temperature (Hypothermia) Test and the Antagonism of Apomorphone-Induced Case Climbing (ACC), (Apomorphine Gnawing Test) are described on page 1398 of the publication, Journal of Medicinal Chemistry, Vol. 22, No. 11, pp. 1390-1398, in an article entitled "6-Aryl-4H-s-triazolo[4,3-a][1,4]benzodiazepines....Action" by J. B. Hester, Jr., et al.
For the tests here, the Hypothermia Test procedure was run as follows:
A group of four CF-1 male mice (18-22 g each) was injected intraperitoneally with the test compound prepared in 0.25 percent w/v methylcellulose in water solution. After 45 min, abdominal temperature of each mouse was measured using a thermister probe. A control group of four mice was treated with vehicle only and the temperature of the control group was taken in a similar manner. A compound was considered to have a significant effect on body temperature if the mean temperature in the test compound treated group deviated more than 3.5°C from the mean temperature of the parallel control group. Stimulants tend to elevate temperatures; depressants tend to lower body temperature.

Row | Compound | active in either the hypothermic or the apomorphine antogonism test | ED50 (Mus musculus, ip, 0.75 h, read-out: hypothermia, calculated ED50) [mg/kg]
1 | CCCN(CCC)C1Cc2cccc3cc(O)cc(c23)C1 (single isomer, unassigned; (-)) [(34), (-)-2-(N,N-di-n-propylamino)-2,3-dihydro-lH-phenalen-5-ol hydrobromide] | active | –
2 | CCCN(CCC)C1Cc2cccc3cc(OC(=O)C(C)(C)C)cc(c23)C1 (stereo not drawn) [(44), 2-(N,N-di-n-propylamino)-2,3-dihydro-lH-phenalen-5-ol, 2,2-dimethylpropyl ester hydrochloride] | active | –
3 | CN(C)C1Cc2cccc3ccc(O)c(c23)C1 (stereo not drawn) [(36), 2-(N,N-dimethylamino)-2,3-dihydro-lH-phenalen-4-ol hydrobromide] | active | –
4 | CCCCCCC(=O)Oc1cc2c3c(cccc3c1)CC(N(CCC)CCC)C2 (stereo not drawn) [(46), [2-(N,N-di-n-propylamino)-2,3-dihydro-1H-phenalen-5-yl]heptanoate ester hydrochloride] | active | –
5 | CN(C)C1Cc2cccc3c(O)ccc(c23)C1 (stereo not drawn) [(3), 2-(N,N-dimethylamino-2,3-dihydro-lH-phenalen-6-ol hydrochloride] | active | –
6 | CCCN(CCC)C1Cc2cccc3cc(O)cc(c23)C1 (racemic) [(15), (±)2-(N,N-di-n-propylamino)-2,3-dihydro-lH-phenalen-5-ol] | active | 1
7 | Cl.NC1Cc2cccc3cc(Cl)cc(c23)C1 (stereo not drawn) [(50), 5-chloro-2,3-dihydro-1H-phenalen-2-ylamine hydrochloride] | active | –
8 | NC1Cc2cccc3c(Br)ccc(c23)C1 (stereo not drawn) [(27), 6-bromo-2,3-dihydro-lH-phenalen-2-ylamine hydrochloride] | active | –
9 | CNC1Cc2cccc3c(OCc4ccccc4)ccc(c23)C1 (stereo not drawn) [(21), [2-(N-methylamino)-2,3-dihydro-lH-phenalen-6-yl]benzyl ether, p-toluene sulfonate salt] | active | –
10 | 6-chloro-N,N-dimethyl-2,3-dihydro-lH-phenalen-2-amine hydrochloride [(52)] | active | –
11 | CNC1Cc2cccc3c(C(C)=O)ccc(c23)C1 (stereo not drawn) [(14), N-methyl-6-acetyl-2,3-dihydro-lH-phenalen-2-amine hydrochloride] | active | –
12 | CCCN(CCC)C1Cc2cccc3c(Br)ccc(c23)C1 (stereo not drawn) [(4)] | active | –
13 | CN(C)C1Cc2cccc3cccc(c23)C1 [(7), N,N-dimethyl-2,3-dihydro-lH-phenalen-2-amine hydrochloride] | active | –
14 | CCCN(CCC)C1Cc2cccc3cc(OC(C)=O)cc(c23)C1 (stereo not drawn) [(37), [2-(N,N-di-n-propylamino)-2,3-dihydro-lH-phenalen-5-yl]acetate ester] | active | –
15 | CCCN(CCC)C1Cc2cccc3cc(O)cc(c23)C1 (racemic) [(17), (±)2-(N,N-di-n-propylamino)-2,3-dihydro-lH-phenalen-5-ol hydrobromide salt] | active | –
16 | N-methyl-6-(2-methyl-l,3-dioxan-2-yl)-2,3-dihydro-lH-phena- len-2-amine maleate salt [(6)] | active | –
17 | CN(C)C1Cc2cccc3c(Br)ccc(c23)C1 (stereo not drawn) [(2), 6-Bromo-N,N-dimethyl-2,3-dihydro-lH-phenalen-2-amine hydrochloride] | active | –
18 | Brc1ccc2c3c(cccc13)CC(N1CCC1)C2 (stereo not drawn) [(12), 1-[6-bromo-2,3-dihydro-1H-phenalen-2-yl]azetidine] | active | –
19 | N,N-dimethyl-4-methoxy-1H-phenalen-2-ylamine hydrochloride, 0.25 H20 hydrate [(30)] | active | –
20 | CCCN(CCC)C1Cc2cccc3cc(OC(=O)Cc4ccccc4)cc(c23)C1 (stereo not drawn) [(48), [2-(N,N-di-n-propylamino)-2,3-dihydro-1H-phenalen-5-yl]-α-phenylacetate ester hydrochloride, 0.5 H2O hydrate] | active | –
21 | CCN(CC)C1Cc2cccc3cccc(c23)C1 [(55), N,N-diethyl-2,3-dihydro-lH-phenalen-2-amine hydrochloride, 0.25 H2O hydrate] | active | –
22 | Brc1ccc2c3c(cccc13)CC(N1CCCCC1)C2 (stereo not drawn) [(29), 1-[6-bromo-2,3-dihydro-1H-phenalen-2-yl]piperadine] | active | –

Row | Compound | active in either the hypothermic or the apomorphine antogonism test | ED50 (Mus musculus, ip, 0.75 h, read-out: hypothermia, calculated ED50) [mg/kg]
23 | 5-[2-(N,N-dimethylamino)-2,3-dihydro-1H-phenalen-2-yl]azetidine hydrochloride [(13)] | active | –
24 | CN(C)C1(N2CCC2)Cc2cccc3cccc(c23)C1 [(11), 1-[2-(N,N-dimethylamino)-2,3-dihydro-1H-phenalen-2-yl]azetidine] | active | –
25 | 6-chloro-N,N-di-n-propyl-2,3-dihydro-lH-phenalen-2-ylamine hydrochloride [(51)] | active | –
26 | CCCN(CCC)C1Cc2cccc3cc(OC(=O)OCC)cc(c23)C1 (stereo not drawn) [(47), [2-(N,N-di-n-propylamino)-2,3-dihydro-lH-phenalen-5-yl]-ethyl carbonate (ester)] | active | –
27 | CCCN(CCC)C1Cc2cccc3cccc(c23)C1 [(53), N,N-di-n-propyl-2,3-dihydro-lH-phenalen-2-amine hydrochloride] | active | –
28 | CN(C)C1Cc2cccc3c(C(=O)c4ccccc4)ccc(c23)C1 (stereo not drawn) [(19), [2-(N,N-dimethylamino)-2,3-dihydro-1H-phenalen-6-yl]phenone maleate salt] | active | –
29 | CCCN(CCC)C1Cc2cccc3cc(O)cc(c23)C1 (single isomer, unassigned; (+)) [(33), (+)-2-(N,N-di-n-propylamino)-2,3-dihydro-lH-phenalen-5-ol hydrobromide] | active | –
30 | CN(C)C1Cc2cccc3c(C(=O)c4ccccc4)ccc(c23)C1 (stereo not drawn) [(39), [2-(N,N-dimethylamina-2,3-dihydro-1H-phenalen-6-yl]phenone maleate salt, hydrochloride] | active | –
31 | CNC1Cc2cccc3c(C(=O)c4ccccc4)ccc(c23)C1 (stereo not drawn) [(20), [2-(N-methylamino)-2,3-dihydro-lH-phenalen-6-yl]phenone methanesulfonate salt] | active | –
32 | CNC1Cc2cccc3c(OCc4ccccc4)ccc(c23)C1 (stereo not drawn) [(41), [2-(N-methylamino)-2,3-dihydro-1H-phenalen-6-yi]-α-benzyl-ether p-toluenesulfonate salt monohydrate] | active | –
33 | 1-[2-(N,N-dimethylamino)-2,3-dihydro-1H-phenalen-y-yl]-ethan-1-ol hydrochloride [(10)] | active | –
34 | COc1ccc2cccc3c2c1CC(N)C3 (stereo not drawn) [(24), 4-methoxy-2,3-dihydro-lH-phenalen-2-amine] | active | –
35 | CCCN(CCC)C1Cc2cccc3cc(OC(=O)c4ccccc4)cc(c23)C1 (stereo not drawn) [(45), [2-(N,N-di-n-propylamino)-2,3-dihydro-lH-phenalen-5-yl]benzoate ester hydrochloride] | active | –
36 | CN(C)C1Cc2cccc3cc(O)cc(c23)C1 (stereo not drawn) [(23), 2-(N,N-dimethylamino)-2,3-dihydro-lH-phenalen-5-ol] | active | –
37 | CCCN(CCC)C1Cc2cccc3ccc(O)c(c23)C1 (stereo not drawn) [(28), 2-(N,N-di-n-propylamino)-2,3-dihydro-1H-phenalen-4-ol hydrobromide] | active | –
38 | [2-amino-2,3-dihydro-lH-phenalen-6-yl]-a-benzyl ether maleate salt [(49)] | active | –
39 | CCCN(CCC)C1Cc2cccc3ccc(OC)c(c23)C1 (stereo not drawn) [(25), N,N-di-n-propyl-4-methoxy-2,3-dihydro-lH-phenalen-2-amine hydrochloride] | active | –
40 | c1cc2c3c(cccc3c1)CC(N1CCC1)C2 [(54), 1-[2,3-dihydro-IH-phenalen-2-yl]azetidine succinate salt] | active | –
41 | CCCN(CCC)C1Cc2cccc3cc(OCc4ccccc4)cc(c23)C1 (stereo not drawn) [(18), [2-(N,N-di-n-propylamino)-2,3-dihydro-lH-phenalen-5-yl]-a-benzyl ether] | active | –
42 | CCCNC1Cc2cccc3cccc(c23)C1 [(56), N-n-propyl-2,3-dihydro-lH-phenalen-2-amine hydrochloride] | active | –
43 | CCCN(CCC)C1Cc2cccc3c(O)ccc(c23)C1 (stereo not drawn) [(9), 2-(N,N-di-n-propylamino)-2,3-dihydro-lH-phenalen-6-ol hydrochloride] | active | –
44 | Brc1ccc2c3c(cccc13)CC(N1CCCC1)C2 (stereo not drawn) [(26), 1-[6-bromo-2,3-dihydro-lH-phenalen-2-yl]pyrrolidine] | active | –
